Experiment [1] addresses T1, Full length human PDE2A protease (Homo sapiens, UniProt O00408).
T1 construct: Full length human PDE2A protease; GST (N); host or cells: insect Sf9 cells (baculovirus)
The experiment can be described thus: In vitro evaluation of PDE2 phosphodiesterase inhibitory activity (Transcreener AMP2/GMP2 fluorescence polarization). The experiment is classed as biochemical. The method, then: In Vitro Evaluation of PDE2 Phosphodiesterase Inhibitory Activity Experimental objectives: To detect the concentration of AMP/GMP produced in the reaction system by measuring the fluorescence intensity of the fluorescent dye AlexaFluor 633 substituted on AMP/GMP antibody and to calculate the PDE2 phosphodiesterase inhibitory IC50 value of the test compound. Test buffer solution: 10 mM Tris-HCl, pH 7.5, 5 mM MgCl2, 0.01% Brij 35, 1 mM DTT, and 1% DMSO. Enzyme: Full length human PDE2A protease expressed and recombined in insect Sf9 cells with baculovirus using N-terminal GST tag […] Transcreener® AMP^2/GMP^2 antibody, AMP2/GMP2 AlexaFluor 633 fluorescent dye The enzyme solution was prepared with freshly prepared buffer solution and then added to the reaction wells. The DMSO solution of the test compound was added by Echo550 non-contact nanoscale sonicate pipetting system and preincubated for 10 minutes at room temperature. The reaction was initiated by addition of substrate (1 μM cGMP) and allowed to react for one hour at room temperature. The detection system (Transcreener® AMP^2/GMP^2 antibody, AMP2/GMP2 AlexaFluor 633 fluorescent dye) was then added and reacted for 90 minutes at room temperature before fluorescence polarization was detected using Ex/Em 620/688. The intensity of fluorescence polarization was converted to nM concentration by the AMP/GMP standard curve and then relative inhibition of enzyme activity relative to DMSO blank was calculated. IC50 values and curves were calculated using the Prism software package (GraphPad Software, San Diego Calif., USA)
A general note: In fluorescence polarisation assays a small probe gives low polarisation when free and higher when bound to something large.

Experiment [2] concerns LPS-induced expression of TNF-α in rat blood. The experiment can be described thus: In vitro effect of the compound on LPS-induced expression of TNF-α in rat blood (ELISA). Also noted: key to TNF-α inhibitory ratio: 80% ≥ + > 60%; ++ > 80%; — N/A. The class given is cell-based, Sprague Dawley rats. The following applies: final compound concentration 100 μM, 5 hours, plasma TNF-α by ELISA; for inhibition at 100 µM: read-out: TNF-α inhibitory ratio. The text has this: Experimental Example 2: In Vitro Evaluation of the Effect of the Compound on LPS-Induced Expression of TNF-α in Rat Blood
Experimental Objectives: To detect in vitro the effect of the test compound on LPS-induced expression of TNF-α in rat blood and evaluate the inhibitory effect of the compound on LPS-induced expression of TNF-α in rat blood.
Sprague Dawley rats (male, 210-260 g, 8-10 weeks old, Shanghai Slack)
Rat TNF-alpha Quantikine ELISA Kit (R & D, #SRTA00)
A solution of the test compound with a concentration of 1 mM was prepared and 40 μL (final compound concentration was 100 μM) was added to a 48-well cell culture plate. Rats were anesthetized with isoflurane and blood was collected from the heart (heparin anticoagulation). The blood was added to the 48-well cell plate to which the test compound has been added, with 320 μL per well. The 48-well plate was placed in a cell incubator, incubated for 30 minutes and then removed, added with 40 μL LPS solution (100 μg/mL), mixed and placed in the incubator to continue the incubation. 5 hours later, the 48-well plate was removed and the blood sample was transferred to a 1.5 mL centrifuge tube and centrifuged in a centrifuge (4,500 rpm, 4° C., 5 minutes). The plasma was separated from the supernatant, frozen quickly after packing and stored in −80° C. refrigerator. The next day the R&D ELISA kit was used to measure TNF-α levels in plasma samples according to the instructions of the kit.

[3] abbreviates: recombinant full length human PDE2A, substrate 1 μM cGMP, 1 hour at room temperature, read-out: PDE2 phosphodiesterase inhibitory activity.

Like-named read-outs stand apart in the source and are kept apart here.

T1 sequence (O00408 whole entry): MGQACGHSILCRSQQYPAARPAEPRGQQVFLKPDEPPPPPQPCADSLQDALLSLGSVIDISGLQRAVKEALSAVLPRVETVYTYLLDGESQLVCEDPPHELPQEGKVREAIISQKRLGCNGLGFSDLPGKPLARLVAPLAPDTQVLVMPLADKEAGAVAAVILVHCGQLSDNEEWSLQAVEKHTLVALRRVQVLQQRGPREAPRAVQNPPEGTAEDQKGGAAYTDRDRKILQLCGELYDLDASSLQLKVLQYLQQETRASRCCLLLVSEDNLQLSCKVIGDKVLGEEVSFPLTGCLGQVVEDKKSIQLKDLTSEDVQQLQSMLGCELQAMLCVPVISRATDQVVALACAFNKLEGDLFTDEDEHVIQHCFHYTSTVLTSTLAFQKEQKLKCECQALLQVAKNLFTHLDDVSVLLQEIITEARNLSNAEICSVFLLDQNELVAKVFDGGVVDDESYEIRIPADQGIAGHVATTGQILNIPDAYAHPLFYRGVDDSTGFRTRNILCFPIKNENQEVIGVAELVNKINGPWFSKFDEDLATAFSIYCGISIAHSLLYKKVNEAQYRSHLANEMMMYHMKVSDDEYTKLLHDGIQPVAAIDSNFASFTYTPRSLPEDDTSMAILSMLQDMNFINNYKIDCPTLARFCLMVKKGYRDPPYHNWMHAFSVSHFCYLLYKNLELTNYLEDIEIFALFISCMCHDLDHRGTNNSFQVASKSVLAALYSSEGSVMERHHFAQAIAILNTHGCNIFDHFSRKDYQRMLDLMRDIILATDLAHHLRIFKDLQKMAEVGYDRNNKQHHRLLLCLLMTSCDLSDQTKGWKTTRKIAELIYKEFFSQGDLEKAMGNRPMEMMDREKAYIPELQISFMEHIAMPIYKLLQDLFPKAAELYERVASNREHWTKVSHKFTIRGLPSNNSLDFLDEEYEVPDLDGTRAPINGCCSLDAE

As for `Cc1cc(CCCCn2cnn3cnc(CC(C)C)c3c2=O)on1` [Example 82, 5-isobutyl-3-(4-(3-methylisoxazol-5-yl)butyl)imidazo[5,1-F] [1,2,4]triazin-4-one], the IC50 in experiment [1] (setting [3]) lay within 1 to 10 µM. Moreover, the inhibition at 100 µM in experiment [2] lay within 60 to 80%.
For `Cc1cc(CCCCn2c(=O)c3cccnc3n(C)c2=O)on1` [Example 89, 1-Methyl-3-[4-(3-methylisoxazol-5-yl)butyl]pyrido[2,3-d]pyrimidine-2,4-dione] the same measures were 10 to 50 µM and greater than 80%.
`Cc1noc(C)c1Cn1c(=O)c2c(ncn2C)n(C)c1=O` [Example 25, 1-((3,5-Dimethylisoxazol-4-yl)methyl)-3,7-dimethyl-1H-purine-2,6(3H,7H)-dione]: in experiment [1] (setting [3]), the IC50 fell in the range of 10 to 50 µM. In experiment [2], the TNF-α inhibitory ratio result is recorded as “—”.
For `CC(C)c1cc(Cn2c(=O)c3c(ncn3CC3CC3)n(C)c2=O)on1` [Example 59, 7-(Cyclopropylmethyl)-1-((3-isopropylisoxazol-5-yl)methyl)-3-methyl-1H-purine-2,6(3H,7H)-dione], in experiment [1] (setting [3]), the IC50 was 1 to 10 µM. Besides, the inhibition at 100 µM in experiment [2] is greater than 80%.
For `CC(C)c1cc(Cn2c(=O)c3c(ncn3C)n(C)c2=O)on1` [Example 15, 1-((3-Isopropylisoxazol-5-yl)methyl)-3,7-dimethyl-1H-purine-2,6(3H,7H)-dione] the same measures were 1 to 10 µM and 60 to 80%.
Take `Cc1cc(C2CCC(n3c(=O)c4c(ncn4C)n(C)c3=O)CC2)on1` (centres unmarked) [Example 27, 3,7-Dimethyl-1-(4-(3-methylisoxazol-5-yl)cyclohexyl)-1H-purine-2,6(3H,7H)-dione]: in experiment [1] (setting [3]), the IC50 lay in the range of 10 to 50 µM. The TNF-α inhibitory ratio result in experiment [2] is listed as “—”.
In turn, `COc1ccc(Cn2c(=O)c3c(ncn3C)n(C)c2=O)cn1` [Example 48, 1-((6-Methoxypyridin-3-yl)methyl)-3,7-dimethyl-1H-purine-2,6(3H,7H)-dione] returned an IC50 in experiment [1] of 10 to 50 µM.
In the case of `Cc1cc(CCCCn2c(=O)c3ccn(C)c3n(C)c2=O)on1` [Example 67, 1,7-Dimethyl-3-(4-(3-methylisoxazol-5-yl)butyl)-1H-pyrrolo[2,3-d]pyrimidine-2,4(3H,7H)-dione], the IC50 in experiment [1] (setting [3]) is 10 to 50 µM.
Still for that read-out and setting: the same measure for `Cc1cc(CCCCn2c(=O)c3cc[nH]c3n(C)c2=O)on1` [Example 66, 1-Methyl-3-(4-(3-methylisoxazol-5-yl)butyl)-1H-pyrrolo[2,3-d]pyrimidine-2,4(3H,7H)-dione]: 10 to 50 µM.
Compound `Cc1cc(CCCCn2c(=O)c3c(ncn3C)n(C)c2=O)on1` [Example 19, 3,7-Dimethyl-1-(4-(3-methylisoxazol-5-yl)butyl)-1H-purine-2,6(3H,7H)-dione] had an IC50 in experiment [1] of 10 to 50 µM. Moreover, in experiment [2], the TNF-α inhibitory ratio entry is “—”.
Take `Cn1cnc2c1c(=O)n(CCCN1CCCC1=O)c(=O)n2C` [Example 3, 3,7-Dimethyl-1-(3-(2-oxopyrrolidin-1-yl)propyl)-1H-purine-2,6(3H,7H)-dione]: the TNF-α inhibitory ratio entry in experiment [2] is given as “—”.
For `Cc1nc(C)c(CCn2c(=O)c3c(ncn3C)n(C)c2=O)s1` [Example 31, 1-(2-(2,4-Dimethylthiazol-5-yl)ethyl)-3,7-dimethyl-1H-purine-2,6(3H,7H)-dione], the IC50 in experiment [1] (setting [3]) was 1 to 10 µM. The TNF-α inhibitory ratio result in experiment [2] is given as “—”.
With `CCn1cnc2c1c(=O)n(CCCCc1cc(C)no1)c(=O)n2C` [Example 50, 7-Ethyl-3-methyl-1-(4-(3-methylisoxazol-5-yl)butyl)-1H-purine-2,6(3H,7H)-dione], the IC50 in experiment [1] (setting [3]) fell in the range of 1 to 10 µM.
`Cc1cc(CCCCn2c(=O)c3c(ncn3C)n(C)c2=O)[nH]n1` [Example 12, 3,7-Dimethyl-1-(4-(3-methyl-1H-pyrazol-5-yl)butyl)-1H-purine-2,6(3H,7H)-dione]: the IC50 in experiment [1] (setting [3]) lay in the range of 10 to 50 µM.
In the case of `Cn1cnc2c1c(=O)n(CCCCc1nn[nH]n1)c(=O)n2C` [Example 37, 1-(4-(2H-tetrazol-5-yl)butyl)-3,7-dimethyl-1H-purine-2,6(3H,7H)-dione], the IC50 in experiment [1] (setting [3]) is 10 to 50 µM.

The values above are taken from patent US10278973B2, “Hydroxyl purine compounds and use thereof” (GUANGDONG RAYNOVENT BIOTECH CO., LTD., priority 2015, dated 2019).
